Assay results from patent US20100003217A1, “Compounds and Pharmaceutical Compositions for the Treatment of Viral Infections” (priority 2008, published 2010).

What was measured:
[1] = tested on: HCV genotype 1b replicon (Zluc cells); experiment: HCV luciferase replicon assay; type: cell-based, hepatitis C virus; details: Hepatitis C virus, 72 h, 3 days
Method: The HCV luciferase replicon assay measures the ability of a test compound to inhibit HCV replication in cell culture after 3 days of treatment in a human hepatoma cell line (Huh-7) bearing the HCV genotype 1b replicon and a luciferase-neomycin phosphotransferase fusion gene. The inhibition of HCV replication was measured by quantification of luciferase protein expression. The HCV luciferase replicon was constructed by fusing a luciferase gene to the amino terminus of the neomycin phosphotransferase gene of the ZS11 HCV replicon. The ZS11 HCV replicon (Zhu Q, Guo J-T, and Seeger C, 2003) is derived from the SP1 replicon, but contains three cell culture-adapted mutations: E1202G (NS3), S22041 (NS5A), and D2254E (NS5A). These mutations allow for efficient in vitro replication. The luciferase reporter gene was amplified from the pGL4.13[luc2/SV40] vector (Promega Corp.). The replicon resulting from the luciferase-neomycin fusion (ZS11-luc) was stably-transfected into Huh-7 cells, yielding the Zluc cell line.
The luciferase replicon assay is summarized as follows: Solid white 96-well tissue culture plates (BD Falcon) were seeded with Zluc cells. Antiviral compound solutions were made up freshly in medium as 2×-concentrated stocks. Eight additional 3-fold drug dilutions were prepared from these stocks in medium for a total of 9 dilutions. At least four hours after Zluc cells were seeded, drug treatment was initiated by adding one volume of each 2×-concentrated drug dilution to one volume of cells/medium in the tissue culture plates. Cells were then incubated for 3 days at 37° C./5% CO2.
The media/compound was then removed from the plates and the ONE-glo Luciferase assay reagent (Promega) was added to each well. The assay plates were shaken for 3 minutes at room temperature and luciferase activity for each well was measured with a 1 sec read time on the Victor^3V multilabel counter using a 700 nm cut-off filter (Perkin Elmer). EC50 values were calculated from dose response curves from the resulting best-fit equations determined by Microsoft Excel and XLfit 4.1 software.

[2] = tested on: S282T HCV replicon (184R-A cells); experiment: microbe, parasite or virus in culture
Method: 3. The 184R-A cell line was derived by culturing wild-type replicon cells in the presence of 1 to 5 μM of Compound 1 for >100 days.
1. […] Huh-7 cells were seeded into column 1 of each plate at a similar density.
2. […] Eight additional 3-fold serial dilutions of each compound were prepared from the 2× stock in assay medium. Final drug concentrations ranged from 100 to 0.015 μM.
3. […] This setup was run in duplicate in each 96-well plate.
4. Cells were incubated with inhibitors for three days at 37° C./5% CO2.
1. After three days of drug treatment, media was removed from the plates via gentle tapping and the cells were fixed to the plates with 100 μL/well of 1:1 acetone:methanol.
2. After one minute of incubation at room temperature, plates were washed three times with 100 μL/well of ELISA wash solution and then blocked with 150 μL/well of 10% FBS-TNE.
3. After a one hour incubation at room temperature, plates were washed three times with 100 μL/well of ELISA wash solution, and then 100 μL/well of mouse anti-hepatitis C […] mAb (1 mg/mL stock diluted 1:1,500 in 10% FBS-TNE) was added.
4. Following 2 hours of incubation at 37° C., plates were washed three times with 100 μL/well of ELISA wash solution, and then 100 μL/well of HRP-goat anti-mouse antibody (diluted 1:4,000 in 10% FBS-TNE) was added.
4. After a one hour incubation period at 37° C., each plate was washed three times with 100 μL/well of ELISA wash solution. Color development was then initiated with 100 μL/well of OPD solution.
5. After a 30 minute incubation period in the dark at room temperature, reactions were stopped by adding 100 μL of 2NH2SO4 to each well.
6. The absorbance was measured at 490 nm on a Victor^3 V 1420 multilabel counter (Perkin Elmer). The percent inhibition of HCV replicon replication was calculated for each drug using an average of the duplicate wells.

CYP2E1 = CYP2E1 (Homo sapiens, UniProt P05181); experiment: Incubation with human recombinant CYP450 supersomes, 2E1; type: in vitro ADME; details: CYP450 2E1 supersomes, 60 min, 10 μM, average of two experiments
Sequence of CYP2E1 (P05181 whole entry): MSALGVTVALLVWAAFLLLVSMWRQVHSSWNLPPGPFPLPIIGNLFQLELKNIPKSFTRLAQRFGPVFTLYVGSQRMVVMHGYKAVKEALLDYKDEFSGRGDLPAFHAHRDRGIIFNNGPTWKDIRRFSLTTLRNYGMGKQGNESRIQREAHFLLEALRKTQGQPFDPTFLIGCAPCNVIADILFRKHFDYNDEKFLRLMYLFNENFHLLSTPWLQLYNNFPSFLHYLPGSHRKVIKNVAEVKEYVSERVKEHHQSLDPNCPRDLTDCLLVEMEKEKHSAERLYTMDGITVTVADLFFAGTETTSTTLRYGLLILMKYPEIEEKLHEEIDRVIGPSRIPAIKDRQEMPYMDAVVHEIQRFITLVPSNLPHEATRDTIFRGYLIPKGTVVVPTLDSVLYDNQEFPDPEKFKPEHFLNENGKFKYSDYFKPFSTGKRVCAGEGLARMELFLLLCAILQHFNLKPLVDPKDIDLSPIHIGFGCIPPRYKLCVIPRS
Method: Supersomes—Incubations were conducted in a final volume of 0.1 mL reaction buffer (50-100 mM potassium phosphate, pH 7.4 or 100 mM Tris-HCL, pH 7.4) according to protocol provided with each CYP450 supersome. Each reaction contained […] of CYP450 supersome, 1.3 mM NADP^+, 3.3 mM glucose-6-phosphate, 0.4 U/mL glucose-6-phosphate dehydrogenase, 3.3 mM MgCl2 and 10 μM Compound 1. Following incubation for 60 min at 37° C., 100 μL of stop solution (acetonitrile:methanol; 1:1) was added and samples centrifuged for 10 min at 10,000×g. The supernatant was then dried and reconstituted in 10 mM potassium phosphate, pH 5, further transferred to an HPLC glass vial and analyzed by HPLC-UV (described above).

[3] = In vitro intracellular half-life of 2′-C-methyl guanosine-5′-triphosphate (Compound 7) in human primary hepatocytes; type: in vitro ADME; details: human, primary hepatocytes (cellular extracts)
Method: (§1) Primary hepatocytes were incubated with 10 μM [^14C]-Compound 1 ([…]) or [^14C]-2′-C-methyl guanosine (127 DPM/μmol) for 24 hours at which time the incubation medium was removed and the cell monolayer carefully washed two times with warm (37° C.) PBS and placed back in culture with drug-free medium. At selected times up to 24 hours, the medium was removed and the cell monolayers carefully washed two times with ice-cold PBS. Following the last wash, all PBS was carefully removed and the cell monolayers processed and extracted as previously described. […]

[4] = tested on: human primary hepatocytes; experiment: as above; type: in vitro ADME; details: for Decay of Compound 7: level in cellular extracts: human hepatocytes Hu775; for Compound 7 levels after 24 hours without drug / reduction of Compound 7 levels after 24 hours without drug / Compound 7 levels at time zero: human hepatocytes
Method: as §1

[5] = [^14C]-2′-C-methyl guanosine removed

CC(C)(CO)C(=O)SCCOP(=O)(NCc1ccccc1)OC[C@H]1O[C@@H](n2cnc3c(=O)[nH]c(N)nc32)[C@](C)(O)[C@@H]1O (mixture of isomers) [Compound 1, 3-hydroxy-2,2-dimethyl-thiopropionic acid S-(2-{[(2R,3R,4R,5R)-5-(2-amino-6-oxo-1,6-dihydro-purin-9-yl)-3,4-dihydroxy-4-methyl-tetrahydro-furan-2-ylmethoxy]-benzylamino-phosphoryloxy}-ethyl) ester]
EC50 [1]: 0.068 ± 0.0004 µM | Fold shift from wild-type ([2]; 184R-A (S282T), EC50 in resistant line divided by EC50 in wild-type cells): 30 fold | EC50 ([2]; Hepatitis C virus): 9 µM | % Residual Compound 1 (CYP2E1): 100%

C[C@@]1(O)[C@H](O)[C@@H](COP(=O)(O)OP(=O)(O)OP(=O)(O)O)O[C@H]1n1cnc2c(=O)[nH]c(N)nc21 [Compound 7, [(2R)-2-methyl-β-D-ribofuranosyl]guanine 5′-triphosphate]
half-life at 10 μM ([3]; in vitro half-life for Compound 7, human hepatocytes, after 2′-C-methyl guanosine): 10.8 h | half-life at 10 μM ([3]; in vitro half-life for Compound 7, human hepatocytes, following [^14C]-Compound 1): 17.4 h | half-life at 10 μM ([3]; in vitro intracellular t1/2 of Compound 7, human hepatocytes Hu775, after 24 h incubation with 10 μM [^14C]-2′-C-methyl guanosine, linear regression): 10.8 h | half-life at 10 μM ([3]; in vitro intracellular t1/2 of Compound 7, human hepatocytes Hu775, after 24 h incubation with 10 μM [^14C]-Compound 1, linear regression): 17.4 h | Decay of Compound 7: level in cellular extracts ([4]; after 24 h incubation with 10 μM [^14C]-2′-C-methyl guanosine, decay time 0 h): 266 pmol/million cells | Decay of Compound 7: level in cellular extracts ([4]; after 24 h incubation with 10 μM [^14C]-2′-C-methyl guanosine, decay time 1 h): 259 pmol/million cells | Decay of Compound 7: level in cellular extracts ([4]; after 24 h incubation with 10 μM [^14C]-2′-C-methyl guanosine, decay time 4 h): 217 pmol/million cells | Decay of Compound 7: level in cellular extracts ([4]; after 24 h incubation with 10 μM [^14C]-2′-C-methyl guanosine, decay time 8 h): 190 pmol/million cells | Decay of Compound 7: level in cellular extracts ([4]; after 24 h incubation with 10 μM [^14C]-2′-C-methyl guanosine, decay time 24 h): 58.0 pmol/million cells | Decay of Compound 7: level in cellular extracts ([4]; after 24 h incubation with 10 μM [^14C]-Compound 1, decay time 0 h): 692 pmol/million cells | Decay of Compound 7: level in cellular extracts ([4]; after 24 h incubation with 10 μM [^14C]-Compound 1, decay time 1 h): 702 pmol/million cells | Decay of Compound 7: level in cellular extracts ([4]; after 24 h incubation with 10 μM [^14C]-Compound 1, decay time 4 h): 597 pmol/million cells | Decay of Compound 7: level in cellular extracts ([4]; after 24 h incubation with 10 μM [^14C]-Compound 1, decay time 8 h): 497 pmol/million cells | Decay of Compound 7: level in cellular extracts ([4]; after 24 h incubation with 10 μM [^14C]-Compound 1, decay time 24 h): 273 pmol/million cells | Compound 7 levels after 24 hours without drug [4, 5]: 58 pmol/million cells | reduction of Compound 7 levels after 24 hours without drug [4, 5]: 78% | Compound 7 levels after 24 hours without drug ([4]; [^14C]-Compound 1 removed): 273 pmol/million cells | reduction of Compound 7 levels after 24 hours without drug ([4]; [^14C]-Compound 1 removed): 61% | Compound 7 levels at time zero ([4]; after 24 h with 10 μM [^14C]-Compound 1): 692 pmol/million cells | Compound 7 levels at time zero ([4]; after 24 h with [^14C]-2′-C-methyl guanosine): 266 pmol/million cells
